Experimental data: article PMC12298629, “New Derivatives of Caracasine Acid with Anti-Leukemic Activity and Limited Effectiveness in Spheroid Cultures” (Pharmaceuticals, 2025)

Key:
[1] = system: different cell lines (CCRF-CEM, K562, Raji, Ramos, HCT116, HCT116 p53KO, A549, U2OS); experiment: Peroxide formation assessment using DCFDA; assay type: cell-based, human; conditions: compounds at 5-fold the IC50; percentage increase versus negative control
Description: The assessment of peroxides was performed as described by Figuero et al. with some modifications. Briefly, the different cell lines, at 10,000 cells per well, were incubated in a sterile 96-well glass-bottom plate from Celvis (München, Germany), which features a black polystyrene frame with high-quality #1.5 glass, suitable for fluorescent assessment. After one hour of incubation in the incubator at 37 °C, 5% CO2, 50 µL of 20 µM 2′,7′-dichlorofluorescein diacetate (DCFDA), Thermo Fisher, was added. The cells were incubated for an additional 30 min to allow for the internalization of the fluorophore. Then, 50 µL of the compounds diluted in media at a concentration 5-fold the IC50 calculated in cytotoxic studies, were added to each well, and the plates were read on an Enspire (PerkinElmer). Fluorescence was measured using the following parameters: excitation at 495 nm and emission at 530 nm. The temperature was maintained at 37 °C, and the readings were taken in bottom mode with three readings per well. Wells containing only RPMI, with 10% FCS, were included as background negative controls. Each experiment was repeated three times on separate occasions (n = 3). Cisplatin was used as a positive control, and the values were calculated based on cells without stimuli (negative control for each cell line). Hydrogen peroxide was used as a possible early marker for apoptosis as described by Miyazato et al..

caspase 3 = experiment: Caspase 3 activity in lysed HCT116 cells from 2D and spheroids; assay type: cell-based, human; conditions: 12 h; for Caspase 3 activity, spheroid culture: HCT116 parental spheroids, 25 µM (cisplatin 15 μM); for Caspase 3 activity, 2D culture: HCT116 parental, 25 µM
Description: The assay was designed to evaluate the impact of various compounds on caspase activity using a standardized quantity of cell protein lysates after 12 h of incubation. The parental line HCT116 served as the basis for these experiments. Three distinct caspases were examined employing the fluorescence assay kits from Calbiochem (San Diego, CA, USA), specifically a fluorometric caspase-8 assay kit and a fluorimetric caspase-3 assay kit. Additionally, the fluorometric kit from Abcam was utilized to assess caspase-9 activity. Due to the variations in protocols for each caspase, separate plates were prepared for each assay, encompassing both two-dimensional (2D) cell cultures and spheroids. The compound concentrations were established at 25 µM, and assays were conducted in quintuplicate following a 12-h incubation period. The cells were harvested from the plates using the standard trypsin-EDTA solution (Merck Sigma Aldrich, Saint Louis, MO, USA), washed, and counted before lysis, as described in each kit. Cell processing adhered to the guidelines provided by the respective companies, and protein concentration was calculated and standardized using the standard BCA assay. Fluorescent readings were captured using the Enspire apparatus (Perkin-Elmer, MA, USA). Positive controls utilized included staurosporine at a concentration of 5 μM and cisplatin at 15 μM. The kits provided their own standards; however, to normalize all the readings between cultures, types, and treatments, the results were expressed as a percentage relative to the positive control, staurosporine, in 2D culture. […] A total of three separate assays were conducted for each caspase.

HCT116KO53 spheroids = experiment: Spheroid viability assay (CellTiter-Glo 3D), HCT116 p53 KO spheroids; assay type: cell-based; conditions: HCT-116, human tumors spheroids, 72 h, 100 pM to 50 μM
Description: Spheroid culture aims to analyze the drug’s effect on complex structures resembling solid tumors. The spheroids were prepared using the specific nonadherent plates for spheroid formation (Nunc Sphera, Thermo Fisher, Waltham, MA, USA) according to the simple protocol outlined by the manufacturer. The cell lines HCT116 parental, HCT116KOTp53, A549, and U2OS were cultured at a density of 2500 cells per well using medium containing 10% fetal calf serum and antibiotics: McCoy’s 5A medium for HCT116, F-12K (Kaighn’s Modified) for A549, and Dulbecco’s Modified Eagle Medium (DMEM). The cells were grown in culture for 48 h as recommended by the manufacturer and as described by Das et al. and Muñoz-Garcia et al..
The cell viability of the treated spheroids was assessed using the kit CellTiter-Glo 3D (Promega Corporation, Madison, WI, USA). The kit is designed to measure ATP as an indicator of viability, generating a luminescent readout that is more sensitive than colorimetric or fluorescence-based methods. The spheroids were cultivated with compounds at concentrations ranging from 100 pM to 50 μM in triplicate for 72 h, and the luminescence was measured using the Enspire apparatus (PerkinElmer). A standard curve was performed for each analysis as recommended by the manufacturer.

C=C1C(=O)C23CCC(C(=C)C)C(C)(CCC(=O)OC)C2CCC1C3 (centres unmarked) [Compound 2, Caracasine]
Peroxide formation (DCFDA) [1]: least active
Caspase 3 activity, spheroid culture (caspase 3): absence of caspase activity
Caspase 3 activity, 2D culture (caspase 3): significant changes
IC50 (HCT116KO53 spheroids): > 50 µM

C=C1C(=O)C23CCC(C(=C)C)C(C)(CCC(=O)OC(C)=O)C2CCC1C3 (centres unmarked) [Compound 7, Caracasine-Acetic Anhydride]
Peroxide formation (DCFDA) [1]: most active
Caspase 3 activity, spheroid culture (caspase 3): absence of caspase activity
Caspase 3 activity, 2D culture (caspase 3): significant changes
IC50 (HCT116KO53 spheroids): > 50 µM

C=C(C)C1CCC23CC(CCC2C1(C)CCC(=O)OC(C)=O)C(C)C3=O (single isomer, unassigned; ent-3) [Compound 6, Ent-3,4-Seco-15-Oxo-Kaur-4(19)-en-Acetic Anhydride]
Peroxide formation (DCFDA) [1]: did not induce peroxide formation
Caspase 3 activity, 2D culture (caspase 3): did not induce caspase activity
IC50 (HCT116KO53 spheroids): > 50 µM

C=C(C)C1CCC23CC(CCC2C1(C)CCC(=O)O)C(C)C3=O (single isomer, unassigned; ent-3) [Compound 5, Ent-3,4-Seco-15-Oxo-Kaur-4(19)-en-3-Oic Acid]
Peroxide formation (DCFDA) [1]: did not induce peroxide formation
Caspase 3 activity, 2D culture (caspase 3): did not induce caspase activity
IC50 (HCT116KO53 spheroids): > 50 µM
